{
  "source": "patent US11793861B2",
  "about": "“PTH prodrugs” (ASCENDIS PHARMA BONE DISEASES A/S, priority 2016, dated 2023)",
  "key": {"[1]": {"test_system": "thyroparathyroidectomised (TPTx) rats", "experiment": "Pharmacodynamic actions in thyroparathyroidectomised (TPTx) rats, 28-days daily subcutaneous injections", "format": "in vivo, SD rats", "description": "Quantitative measurements of serum calcium (sCa), urinary calcium and serum phosporous (sP) were performed on a Roche-Hitachi P800 modular biochemistry instrument.\nRats subjected to thyroparathyroidectomy (TPTx) by blunt dissection are unable to produce parathyroid hormone, PTH, the major regulator of calcium homeostasis. […] Additionally, one group of sham operated rats (n=9) representing normophysiological background control were also given vehicle. Serum calcium (sCa) and phosporous (sP) levels in the animals were measured pre- and post-dose on days 1, 6, 12 and 27. Moreover, bone turnover markers (P1NP and CTx) were measured and bone quality assessed by ex vivo pQCT."}, "[2]": {"conditions": "cited from earlier work"}},
  "data": [
    {"substance": "PTH(1-84): Natpara®, PTH(1-84), approved by the FDA for hypoparathyroidism; the current standard of care (SEQ ID NO:1)", "values": [
      {"measurement": "trabecular BMD compared to both control groups", "setting": "[1]; 28 days treatment", "result": "significant increase"},
      {"measurement": "effect on serum phosphorous (sP)", "setting": "[1]; TPTx rats, daily sc", "result": "minimal decrease"},
      {"measurement": "effect on serum calcium (sCa)", "setting": "[1]; TPTx rats, daily sc, 18 at […], PTH(1-84) at 7.3 nmol/kg/d", "result": "did not lead to increase in sCa"},
      {"measurement": "serum calcium (sCa) at day 12", "setting": "[1]; TPTx rats, 18 at […], PTH(1-84) at 7.3 nmol/kg/d, sc", "result": 8.1, "unit": "mg/dL"},
      {"measurement": "trabecular and cortical BMD in vertebrae", "setting": "[1]; following 28 days of treatment", "result": "anabolic effect"},
      {"measurement": "PTH Cmax", "setting": "[2]; currently approved doses", "result": 0.3, "unit": "ng/mL"},
      {"measurement": "control of urinary calcium excretion", "setting": "[2]; daily injections, FDA review", "result": "failed to provide adequate control"},
      {"measurement": "incidence of hypercalcemia and hypocalcemia compared to placebo", "setting": "[2]; in vivo", "result": "did not improve"}
    ]}
  ]
}
